Measurements reported in PubChem BioAssay (NCI).
“And” between values parts separate entries of the source, which are not always exact repeats. Identical values can stand only once.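 These data come from cells grown in 96-well plates and exposed to compound for 48 hours at five concentrations. At the GI50, growth is halved. TGI denotes the concentration required for complete inhibition of growth.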

Legend:
Experiment in all cases: NCI-60 cell line screen, 48 h
[1] = test system: A549 NSCLC
[2] = test system: TK-10 renal
[3] = test system: MDA-MB-435
[4] = test system: UACC-257 melanoma
[5] = test system: M14 melanoma
[6] = test system: SF-268 CNS
[7] = test system: PC-3 prostate
[8] = test system: BT-549 breast
[9] = test system: MALME-3M melanoma
[10] = test system: RPMI-8226 leukemia
[11] = test system: MDA-MB-231 breast

Compound | GI50 [1] [µM] | TGI [1] | GI50 [2] [µM] | TGI [2] [µM] | GI50 [3] [µM] | TGI [3] [µM] | GI50 [4] [µM] | TGI [4] | TGI [5] [µM] | TGI [6] | TGI [7] [µM] | TGI [8] [µM] | TGI [9] | TGI [10] | TGI [11] [µM] | GI50 [6] [µM] | GI50 [9] [µM] | GI50 [10] [µM] | GI50 [7] [µM] | GI50 [11] [µM]
Cc1cc(NCc2cc(Nc3ccnc4cc(Cl)ccc34)ccc2F)nc(N2CCCC2)n1 | 2.22 | 6.02 µM | 1.94 | 3.61 | 1.61 | 3.01 | 1.87 | 3.53 µM | – | – | – | – | – | – | – | – | – | – | – | –
CC12CCC(C(=O)OC1=O)C(C)(C)O2 (stereo not given) | – | > 100 µM | – | > 100 | – | > 100 | – | > 100 µM | > 100 | > 100 µM | > 100 | > 100 | > 100 µM | > 100 µM | – | – | – | – | – | –
CN(C)CCNc1nc(-c2ccc3ccccc3c2)nc2nc[nH]c12 | – | 26.3 µM | – | 19.4 | – | 25 | – | 19.5 µM | 23.6 | 25.1 µM | 18.4 | 23.4 | 16.6 µM | > 100 µM | 26.5 | – | – | – | – | –
C/C=C/[P+](c1ccccc1)(c1ccccc1)c1ccccc1 | – | > 100 µM | – | 20.3 | – | 5.97 | – | 11.2 µM | 27.2 | 17.1 µM | > 63.8 | 3 | 13.6 µM | 0.898 µM | 14.4 | – | – | – | – | –
Cc1c2cc[n+](CCN3CCCCC3)cc2c(C)c2c1[nH]c1ccc(O)cc12 | – | 34.7 µM and 27.8 µM | – | > 57.6 | – | 34.5 | 28.7 | 29 µM and > 74 µM | 50.4 | 29.6 µM and 25.7 µM | 28.6 | 28.7 | 25.9 µM and 19.2 µM | 23.3 µM and 11.6 µM | 34.7 | 2.29 | 3.17 | 1.74 | – | –
Cc1ccc(Oc2ccc(C)cc2[N+](=O)[O-])cc1 | – | > 100 µM | – | > 100 | – | – | – | > 100 µM | > 100 | > 100 µM | – | – | > 100 µM | > 100 µM | – | – | – | – | – | –
O=S(=O)(Sc1ccc(Cl)cc1)c1ccc(Cl)cc1 | – | 32.7 µM | – | 61.4 | – | – | – | 36.3 µM | 32.5 | 21.3 µM | – | – | 48.9 µM | 60.5 µM | – | – | – | – | – | –
COc1ccc([C@@H]2ON(C)[C@H]3CN(C)C(=O)[C@@H]23)cc1 | – | > 100 µM | – | > 100 | – | – | – | > 100 µM | > 100 | – | > 100 | – | – | > 100 µM | > 100 | – | – | – | – | –
CCCCCCNC(=O)c1cnc(Cl)cn1 | – | 42.3 µM | – | > 100 | – | 28.9 | – | 37.4 µM | 26 | 31.4 µM | 22.8 | 82.4 | 31.1 µM | > 100 µM | 32.4 | – | – | – | – | –
Cc1sc(Cc2ccccc2)nc1-c1ccc(N)cc1 | – | > 100 µM | – | > 100 | – | 37.7 | – | 84.5 µM | 43.7 | > 100 µM | 89.7 | 83.4 | 90.2 µM | 71.4 µM | 84.8 | – | – | – | – | –
COc1ccc(N2C(=O)C3c4[nH]c5c(C)cccc5c4C4CCC(C(C)(C)C)CC4C3C2=O)cc1 (stereo not given) | – | > 10 µM | – | > 10 | – | > 10 | – | – | > 10 | > 10 µM | > 10 | – | > 10 µM | > 10 µM | > 10 | – | – | – | – | –
NC(=O)CCCC(NCc1c2ccccc2nc2ccccc12)C(=O)O (stereo not given) | – | > 100 µM | – | > 100 | – | – | – | > 100 µM | > 100 | > 100 µM | – | – | > 100 µM | 93.6 µM | – | – | – | – | – | –
Cc1ccccc1N=Nc1ccc(N=Nc2c(O)ccc3ccccc23)c(C)c1 | – | > 100 µM | – | > 100 | – | > 100 | – | > 100 µM | > 100 | > 100 µM | > 100 | > 100 | > 100 µM | > 100 µM | > 100 | – | – | – | – | –
NC(=O)NN=C(CS)CS | – | 40.7 µM | – | – | – | – | – | > 70.6 µM | – | > 79.9 µM | – | – | 40 µM | > 100 µM | – | – | – | – | – | –
CN(C)CCCNc1ccc2ncn3c4ccccc4c(=O)c1c23 | – | – | – | 69.7 | – | – | – | 61.3 µM | 41.6 | 40.4 µM | – | – | 49.2 µM | 26.9 µM | – | – | – | – | – | –
CCOC(=O)/C(Cl)=C(\C)Nc1nc2c(ccc3ccccc32)s1 | – | – | – | > 100 | – | – | – | > 100 µM | > 100 | > 100 µM | > 100 | > 100 | > 100 µM | – | > 100 | – | – | – | – | –
O=c1ccc2cc(O)c(O)cc2o1 | – | > 100 µM | – | > 100 | – | > 100 | – | > 100 µM | > 100 | > 100 µM | > 100 | > 100 | > 100 µM | > 100 µM | > 100 | – | – | – | – | –
CC(=O)C(O)N1C(=O)C=CC1=O (stereo not given) | – | 16.4 µM and 35.9 µM | – | – | 10700 | – | – | – | – | 17.9 µM and 51.8 µM | – | 24.8 | – | 35 µM and 5.64 µM | – | – | – | 12.8 | 2470 | 13400
CCCCCCCSc1nc2c(C(=O)OCC)ncn2c2ccccc12 | – | – | – | > 100 | – | – | – | > 100 µM | > 100 | > 100 µM | – | – | > 100 µM | > 100 µM | – | – | – | – | – | –
CN(C)c1ccc(/C=N\NC(=O)CSCC(=O)N/N=C/c2ccc(N(C)C)cc2)cc1 | – | > 100 µM | – | > 100 | – | > 100 | – | > 100 µM | > 100 | > 100 µM | > 100 | 80.4 | > 100 µM | > 100 µM | 58.6 | – | – | – | – | –
COc1ccc(-c2c3c(nc4nc(SCCc5ccccc5)nc(N)c24)CCCC3)cc1OC | – | > 100 µM | – | > 100 | – | > 100 | – | > 100 µM | > 100 | > 100 µM | > 100 | > 100 | > 100 µM | > 100 µM | > 100 | – | – | – | – | –
CC1C(O)C2(Oc3cc4c(c5c3[C@@H](CC5O)[C@H]2C)CCC2Cc3nc5c(nc3C[C@@]42C)CC2CCC3C4=C[C@H]6O[C@@]7(O[C@@](C)(CO)C[C@@H]7O)C(C)[C@@]6(O)[C@]4(C)[C@@H](O)CC3[C@]2(C)C5)OC1(C)C (stereo not given in full) | – | 0.841 µM | – | – | – | – | – | > 3.67 µM | – | 0.641 µM | – | – | 0.66 µM | > 3.67 µM | – | – | – | – | – | –
N#CC(c1ccccc1)c1nc2ccc(=N)cc-2n(O)c1C(C#N)c1ccccc1 (stereo not given) | – | > 100 µM | – | > 100 | – | – | – | > 100 µM | > 100 | > 100 µM | – | – | > 100 µM | – | – | – | – | – | – | –
Cc1ccc(S(=O)(=O)NCCSCCNS(=O)(=O)c2ccc(C)cc2)cc1 | – | > 100 µM | – | > 100 | – | > 100 | – | > 100 µM | > 100 | > 100 µM | > 100 | – | – | – | > 100 | – | – | – | – | –
